Values after ≈ are worked out from the molar mass of the structure shown.
Key:
[1] = Inhibition of Streptococcus pneumoniae DNA Topoisomerase 4 subunit ParE
Staphylococcus aureus [2] = test: Antibacterial activity against methicillin-, quinolone-resistant Staphylococcus aureus; assay type: functional
DNA gyrase subunit B = DNA gyrase subunit B (Staphylococcus aureus, UniProt P0A0K8); test: Inhibition of Staphylococcus aureus DNA gyrase B expressed in Escherichia coli BL21(DE3) cells assessed ATP hydrolysis activity […] by malachite green reagent assay
Chain of DNA gyrase subunit B (P0A0K8 whole entry): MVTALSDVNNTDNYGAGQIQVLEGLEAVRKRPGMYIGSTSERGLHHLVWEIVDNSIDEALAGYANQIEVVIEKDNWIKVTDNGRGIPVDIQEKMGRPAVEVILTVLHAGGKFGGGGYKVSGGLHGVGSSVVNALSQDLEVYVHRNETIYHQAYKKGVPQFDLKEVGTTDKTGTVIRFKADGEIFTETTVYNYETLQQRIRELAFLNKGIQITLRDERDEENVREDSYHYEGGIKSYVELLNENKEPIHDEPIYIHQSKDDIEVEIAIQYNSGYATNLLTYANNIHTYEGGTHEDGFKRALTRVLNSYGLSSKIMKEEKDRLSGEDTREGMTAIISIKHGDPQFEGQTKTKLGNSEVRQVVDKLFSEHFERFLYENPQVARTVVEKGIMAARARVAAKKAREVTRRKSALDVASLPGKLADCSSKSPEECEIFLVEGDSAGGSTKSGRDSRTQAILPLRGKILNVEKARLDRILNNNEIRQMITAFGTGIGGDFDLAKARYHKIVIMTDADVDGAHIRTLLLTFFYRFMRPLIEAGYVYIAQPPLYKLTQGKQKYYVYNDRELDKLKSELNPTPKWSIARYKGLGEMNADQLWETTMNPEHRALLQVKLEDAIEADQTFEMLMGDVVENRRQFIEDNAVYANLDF

Streptococcus pneumoniae = test: Antibacterial activity against Streptococcus pneumoniae ARC548; assay type: functional
Staphylococcus aureus [3] = test: Antibacterial activity against methicillin-sensitive Staphylococcus aureus; assay type: functional
[4] = Lipophilicity, log D of the compound; details: octanol/water
[5] = Ratio of IC50 for Staphylococcus aureus DNA gyrase B to IC50 for Streptococcus pneumoniae Topoisomerase ParE

SMILES | IC50 [1] | MIC (Staphylococcus aureus [2]) | IC50 (DNA gyrase subunit B) | MIC (Streptococcus pneumoniae) | MIC (Staphylococcus aureus [3]) | logD [4] | Ratio IC50 [5]
CCNC(=O)c1cc2c(-n3ccc(C(F)(F)F)n3)c(-c3cnc(OC)c(-c4n[nH]c(=O)o4)c3)cnc2[nH]1 | 3 nM | 1.56 µM (≈ 0.803 µg/mL) | 4 nM | < 0.03 µM | 0.78 µM (≈ 0.401 µg/mL) |  | 
C[C@H]1COc2c(N3CCN(C)CC3)c(F)cc3c(=O)c(C(=O)O)cn1c23 [LEVOFLOXACIN] |  | > 25 µM |  | 3.13 µM (≈ 1.13 µg/mL) | 0.78 µM (≈ 0.282 µg/mL) |  | 
CC(C)NC(=O)c1cc2c(-n3ccc(C(F)(F)F)n3)c(-c3cncc(C(=O)O)c3)cnc2[nH]1 | 44 nM |  | 147 nM | > 25 µM | > 25 µM | -0.62 | 
O=C(O)c1cncc(-c2cnc3[nH]c(C(=O)NC4CC4)cc3c2-n2ccc(C(F)(F)F)n2)c1 | 6 nM |  | 39 nM | 25 µM (≈ 11.4 µg/mL) | > 25 µM | -0.98 | > 3
CCNC(=O)c1cc2c(-n3ccc(C(F)(F)F)n3)c(-c3cncc(-c4n[nH]c(=O)o4)c3)cnc2[nH]1 | 3 nM | 1.1 µM (≈ 0.533 µg/mL) | < 1 nM | < 0.03 µM | 0.4 µM (≈ 0.194 µg/mL) | 1.65 | 
CCNC(=O)c1cc2c(-n3ccc(C(F)(F)F)n3)c(-c3cc(-c4n[nH]c(=O)o4)cnc3OC)cnc2[nH]1 | 3 nM | 0.2 µM (≈ 0.103 µg/mL) | 2 nM | < 0.02 µM | 0.098 µM (≈ 0.0504 µg/mL) | 2.91 | 
CCCNC(=O)c1cc2c(-n3ccc(C(F)(F)F)n3)c(-c3cncc(C(=O)O)c3)cnc2[nH]1 | 45 nM |  | 58 nM | > 25 µM | > 25 µM | -0.79 | 
CO[C@@H]1[C@@H](OC(N)=O)[C@@H](O)[C@H](Oc2ccc3c(O)c(NC(=O)c4ccc(O)c(CC=C(C)C)c4)c(=O)oc3c2C)OC1(C)C [NOVOBIOCIN] |  | 0.39 µM (≈ 0.239 µg/mL) |  | 0.78 µM (≈ 0.478 µg/mL) | 0.39 µM (≈ 0.239 µg/mL) |  | 
CCNC(=O)c1cc2c(-n3ccc(C(F)(F)F)n3)c(-c3cncc(C(=O)NC)c3)cnc2[nH]1 | 16 nM | 12.5 µM (≈ 5.72 µg/mL) | 11 nM | 0.098 µM (≈ 0.0448 µg/mL) | 6.25 µM (≈ 2.86 µg/mL) | 2.21 | 
O=C(O)/C=C/c1cccc(-c2cnc3[nH]ccc3c2)c1 |  |  |  | 200 µM (≈ 52.9 µg/mL) | > 200 µM | 0.58 | 
CCNC(=O)c1cc2c(-n3ccc(C(F)(F)F)n3)c(-c3cncc(C(N)=O)c3)cnc2[nH]1 |  | > 25 µM |  | 0.2 µM (≈ 0.0887 µg/mL) | 25 µM (≈ 11.1 µg/mL) |  | 
CCNC(=O)c1cc2c(-n3ccc(C(F)(F)F)n3)c(-c3cncc(C(=O)O)c3)cnc2[nH]1 |  |  |  | 6.25 µM (≈ 2.78 µg/mL) | > 25 µM | -0.99 | 
CCNC(=O)c1cc2c(-n3nc(C(F)(F)F)cc3C)c(-c3cncc(C(=O)O)c3)cnc2[nH]1 | 65 nM |  | 133 nM | 12.5 µM (≈ 5.73 µg/mL) | > 25 µM | -0.88 | 
CCNC(=O)c1cc2c(-n3ccc(C(F)(F)F)n3)c(-c3cncc(C#N)c3)cnc2[nH]1 | 10 nM | 1.56 µM (≈ 0.664 µg/mL) | 23 nM | 0.2 µM (≈ 0.0851 µg/mL) | 3.13 µM (≈ 1.33 µg/mL) | 2.62 | 

— ChEMBL document CHEMBL2057070, “Discovery of a novel azaindole class of antibacterial agents targeting the ATPase domains of DNA gyrase and Topoisomerase IV” (Bioorg Med Chem Lett, 2012)
